Experimental data taken from patent publication US7173014B2, “HIV-specific synthetic oligonucleotides and methods of their use” (priority 1997, dated 2007).
Like-named read-outs stand apart in the source and are kept apart here. Blank lines part the entries; values can stand above or below the molecule they belong to.

Legend:
[1] = system: clinical strains of HIV-1; test: AZT and ddI sensitivity of clinical strains of HIV-1 (Table 3); type: cell-based
Description: To determine the preclinical range of anti-HIV activity of various oligonucleotides of the invention (see TABLE 2), evaluations were performed with Oligo 12 (having SEQ ID NO:1), Oligo 32 (SEQ ID NO:3) and Oligo 41 (SEQ ID NO:6). These evaluations were performed to determine the activity of these compounds against a variety of wild type and drug resistant strains of HIV 1, including both laboratory derived and low passage, clinical strains of virus and T lymphocyte tropic and monocyte macrophage tropic viruses such as those listed below in TABLE 3.

[2] = system: HIV-2 (ROD); test: XTT-based anti-HIV assay, HIV-2; type: cell-based; conditions: XTT assay
Description: (§1) The initial experiment performed involved evaluation of Oligos 12, 32, and 41 against three laboratory strains of HIV-1 (IIIB, RF and SK1) and one strain of HIV-2 (ROD) in parallel with the positive control compound ddC in the XTT-based anti-HIV assay. All these oligonucleotides are active against both HIV-1 and HIV-2.
(§2) CEM-SS sells (AIDS Research and Reference Reagent Program, NIH) or other established human T cell lines used in these experiments were passaged in T-150 flasks for use in the assay. On the day preceding the assay, the cells were split 1:2 to assure they would be in an exponential growth phase at time of infection. On the day of assay the cells were washed twice with tissue culture medium and resuspended in fresh tissue cultures medium. Total cell and viability counting was performed using a hemacytometer and trypan blue dye exclusion. Cell viability was greater than 95% for the cells to be utilized in the assay. The cells were pelleted and resuspended at 2.5×10^4 cells per ml in tissue culture medium. Cells were added to the drug-containing plates in a volume of 50 μl.
(§3) A pretitered aliquot of virus was removed from the freezer −80° C.) and allowed to thaw slowly to room temperature in a biological safety cabinet. The virus was resuspended and diluted into tissue culture medium such that the amount of virus added to each well in a volume of 50 μl will be the amount determined to give complete cell killing at 6 days post-infection. In general the virus pools produced with the IIIB isolate of HIV required the addition of 5 μl of virus per well.
Each plate contained cell control wells (cells only), virus control wells (cells plus virus), drug toxicity control wells (cells plus drug only), drug colorimetric control wells (drug only) as well as experimental wells (drug plus cells plus virus).
After 6 days of incubation at 37° C. in a 5% CO2 incubator, the test plates were analyzed by staining with the tetrazolium dye XTT. XTT-tetrazolium is metabolized by the mitochondrial enzymes of metabolically active cells to a soluble formazan product, allowing the rapid quantitative analysis of the inhibition of HIV-induced cell killing by anti-HIV test substances. On day 6 post-infection plates were removed from the incubator and observed. The use of round bottom microtiter plates allows rapid macroscopic analysis of the activity of a given test compound by the evaluation of pellet size. The results of the macroscopic observations were confirmed and enhanced by further microscopic analysis.
XTT solution was prepared daily as a stock of 1 mg/ml in PBS. Phenazine methosulfate (PMS) solution was prepared at 15 mg/ml in PBS and stored in the dark at −20° C. XTT/PMS stock was prepared immediately before use by diluting the PMS 1:100 into PBS and adding 40 μl per ml of XTT solution. Fifty microliters of XTT/PMS was added to each well of the plate and the plate was incubated for an additional 4 hours at 37° C. Adhesive plate sealers were used in place of the lids, the sealed plate was inverted several times to mix the soluble formazan product and the plate was read spectrophotometrically at A450 nm with a Molecular Devices Vmax plate reader.

[3] = system: monocyte-macrophage-tropic strains BaL and ADA; test: Anti-HIV assay in fresh human monocyte-macrophages; type: cell-based, HIV-1
Description: In addition to these T-tropic strains, the activity of the compounds was also evaluated against the monocyte-macrophage strains BaL and ADA. Oligos 12 and 32 according to the invention, as well as Oligo 41 are active against low passage clinical T-tropic strains of HIV-1. The activity of the compounds varies from strain to strain. The compounds were not active against the monocyte-macrophage-tropic strains BaL and ADA.
For isolation of adherent cells, 3×10^6 non-PHA stimulated peripheral blood cells were resuspended in Hanks buffered saline (with calcium and magnesium) supplemented with 10% human AB serum. The cells were placed in a 24-well microtiter plate at 37° C. for 2 hours. Non-adherent cells were removed by vigorously washing six times. The adherent cells were cultured for 7 days in RPMI 1640 tissue culture medium with 15% fetal bovine serum. The cultures were carefully monitored for confluency during this incubation period. Infection of the cells was performed with the monocytotropic HIV-1 strains BaL or ADA and the matched pair of AZT-sensitive and AZT-resistant virus isolates. Each of these virus isolates was obtained from the NIAID AIDS Research and Reference Reagent Program. High titer pools of each of these viruses have been harvested from infected cultures of peripheral blood adherent cells and frozen in 1.0 ml aliquots at −80° C. Monocyte-macrophage monolayers were infected at an MOI of 0.1. Compounds to be evaluated in the monocyte-macrophage assay are added to the monolayers shortly before infection in order to maximize the potential for identifying active compounds.
At 2 days post-infection, the medium was decanted and the cultures washed twice with complete medium in order to remove excess virus. […] Control curves are generated in each assay to accurately quantify the amount of capsid protein in each sample. Data was obtained by spectrophotometric analysis at 450 nm using a plate reader (Molecular Devices Vmax). P24 concentrations were calculated from the optical density values by use of the Molecular Device software package Soft Max.

[4] = system: HIV-1 (IIIB, RF and SK1); test: XTT-based anti-HIV assay, laboratory strains of HIV-1; type: cell-based
Description: as §1
as §2, with “Cells were added to the drug-containing plates in a volume of 50 μl.” left out
as §3, with “In general the virus pools produced with the IIIB isolate of HIV required the addition of 5 μl of virus per well.” left out
After 6 days of incubation at 37° C. in a 5% CO2 incubator, the test plates were analyzed by staining with the tetrazolium dye XTT. XTT-tetrazolium is metabolized by the mitochondrial enzymes of metabolically active cells to a soluble formazan product, allowing the rapid quantitative analysis of the inhibition of HIV-induced cell killing by anti-HIV test substances. […]
XTT solution was prepared daily as a stock of 1 mg/ml in PBS. […] Adhesive plate sealers were used in place of the lids, the sealed plate was inverted several times to mix the soluble formazan product and the plate was read spectrophotometrically at A450 nm with a Molecular Devices Vmax plate reader.

[5] = system: low passage, clinical strains of HIV-1; test: Anti-HIV activity in fresh human peripheral blood mononuclear cells; type: cell-based; conditions: fresh human PBMC; varies from strain to strain
Description: In another experiment, the anti-HIV activity of Oligos 12, 32, and 41 was evaluated against a variety of low passage, clinical strains of HIV-1 in fresh human peripheral blood mononuclear cells. These strains include viruses obtained from pediatric patients attending the Children's Hospital University of Alabama at Birmingham as well as viruses representative of the various HIV-1 clades found throughout the world, shown below in TABLE 4.
Fresh human peripheral blood lymphocytes (PBL) were isolated from voluntary Red Cross donors, seronegative for HIV and HBV. Leukophoresed blood was diluted 1:1 with Dulbecco's phosphate buffered saline (PBS), layered over 14 ml of Ficoll-Hypaque density gradient in a 50 ml centrifuge tube. Tubes were then centrifuged for 30 minutes at 600×g. Banded PBLs were gently aspirated from the resulting interface and subsequently washed 2× with PBS by low speed centrifugation. After final wash, cells were enumerated by trypan blue exclusion and re-suspended at 1×10^7/ml in RPMI 1640 with 15% Fetal Bovine Serum (FBS), 2 mM L-glutamine, […] PHA-P and allowed to incubate for 48–72 hours at 37° C. After incubation, PBLs were centrifuged and reset in RPMI 1640 with 15% FBS, 2 mM L-glutamine, 100 U/ml penicillin, 100 μg/ml streptomycin, 10 μg/ml gentamycin, and 20 U/ml recombinant human IL-2. PBLs were maintained in this medium at a concentration of 1–2×10^6/ml with bi-weekly medium changes, until use in assay protocol. […]
In the standard PBL assay (MOI: 0.2), the assay was ended on day 7 following collection of cell free supernatant samples for reverse transcriptase activity assay. In the low MOI PBL assay (MOI: 0.02), supernatant samples were collected on day 6, day 11, and day 14 post-infection and analyzed for RT activity. […] Opti-Fluor O was added to each sample and incorporated radioactivity was quantified utilizing a liquid scintillation counter, (Wallac 1450 Microbetaplus, Gaithersburg, Md.).

IC50 ([1]; Human immunodeficiency virus 1, isolate BAKI, tropism L, read-out: AZT IC50): 49 nM | IC50 ([1]; Human immunodeficiency virus 1, isolate BLCH, tropism L, read-out: AZT IC50): 10 nM | IC50 ([1]; Human immunodeficiency virus 1, isolate DEJO, tropism L, read-out: AZT IC50): 15 nM | IC50 ([1]; Human immunodeficiency virus 1, isolate RIARL, tropism L, read-out: AZT IC50): 10 nM | IC50 ([1]; Human immunodeficiency virus 1, isolate ROJO, tropism L, read-out: AZT IC50): 16 nM | IC50 ([1]; Human immunodeficiency virus 1, isolate ROMA, tropism M, read-out: AZT IC50): 16 nM | IC50 ([1]; Human immunodeficiency virus 1, isolate SLKA, tropism M, read-out: AZT IC50): 25 nM | IC50 ([1]; Human immunodeficiency virus 1, isolate STDA, tropism L, read-out: AZT IC50): 17 nM | IC50 ([1]; Human immunodeficiency virus 1, isolate TEKI, tropism L, read-out: AZT IC50): 29 nM | IC50 ([1]; Human immunodeficiency virus 1, isolate TEKI, tropism M, read-out: AZT IC50): 16 nM | IC50 ([1]; Human immunodeficiency virus 1, isolate VIHU, tropism L, read-out: AZT IC50): 16 nM | IC50 ([1]; Human immunodeficiency virus 1, isolate WEJO, tropism L, read-out: AZT IC50): 56 nM | IC50 ([1]; Human immunodeficiency virus 1, isolate WOME, tropism L, read-out: AZT IC50): 16 nM
Molecule: Cc1cn([C@H]2C[C@H](N=[N+]=[N-])[C@@H](CO)O2)c(=O)[nH]c1=O [AZT, 3′-azido-3′-deoxythymidine]

Molecule: O=c1[nH]cnc2c1ncn2[C@H]1CC[C@@H](CO)O1 [ddi, dideoxyinosine]
IC50 ([1]; isolate BAKI, tropism L, read-out: ddi IC50): 2610 nM | IC50 ([1]; isolate ROJO, tropism L, read-out: ddi IC50): 870 nM | IC50 ([1]; isolate ROMA, tropism M, read-out: ddi IC50): 160 nM | IC50 ([1]; isolate SLKA, tropism M, read-out: ddi IC50): 320 nM | IC50 ([1]; isolate STDA, tropism L, read-out: ddi IC50): 230 nM | IC50 ([1]; isolate TEKI, tropism L, read-out: ddi IC50): 370 nM | IC50 ([1]; isolate TEKI, tropism M, read-out: ddi IC50): 1700 nM | IC50 ([1]; isolate VIHU, tropism L, read-out: ddi IC50): 1210 nM | IC50 ([1]; isolate WEJO, tropism L, read-out: ddi IC50): 2180 nM | IC50 ([1]; isolate WOME, tropism L, read-out: ddi IC50): 410 nM

Molecule: CGCACCCATCTCTCTCCUUCU (chemistry not given here) [Oligo 32]
level of activity against the HIV-2 strain ROD ([2]; compared with the HIV-1 strains): enhanced level of activity | activity against HIV-2 ([2]; strain ROD): active | activity against monocyte-macrophage-tropic strains BaL and ADA [3]: not active | activity against HIV-1 [4]: active | activity against low passage clinical T-tropic strains of HIV-1 [5]: active
